Measured values from article PMC7407491, “The Addition of a Synthetic LPS-Targeting Domain Improves Serum Stability While Maintaining Antimicrobial, Antibiofilm, and Cell Stimulating Properties of an Antimicrobial Peptide” (Biomolecules, 2020).
Bridge positions count the residues as written; N and C are the ends. Peptide text beside a SMILES is read from it.

Assays:
IPEC-J2 cells = experiment: In vitro cell migration, transwell assay; assay type: cell-based, porcine; settings: transwell 8-micron, serum-free DMEM F-12, 5 to 20 µg/mL, 16 h, Hoechst 33342 count; SynPG-1 not significant at higher concentrations
Experimental: A cell line, established from intestinal porcine enterocytes, isolated from the jejunum of a neonatal unsuckled piglet (IPEC-J2 cells, DSMZ), was grown in monolayer culture in Dulbecco’s modified Eagle’s medium (high glucose), supplemented with 10% fetal bovine serum (FBS) from Invitrogen, 100 IU/mL penicillin, and 100 µg/mL streptomycin. Cultures were maintained in a 5% CO2 humidified atmosphere at 37 °C and passaged every 2–3 days, with detachment via the Trypsin-EDTA solution (Sigma).
To evaluate migration of IPEC-J2 cells, 8-micron pore-sized cell culture transwell inserts were used (Millipore Inc, Temecula, CA, USA). A total of 1 × 10^5 cells were plated in the upper inserts of the transwell and placed within 24-well plates, containing serum-free DMEM F-12 in the absence and presence of SynPG-1 or PG-1, at concentrations ranging from 5 µg/mL to 20 µg/mL. After incubation for 16 h, the cells were fixed with 4% (w/v) paraformaldehyde. […] Migration was quantified by cell enumeration through Hoechst 33342 staining of cell nuclei (Thermo Fisher Scientific, Mississauga, ON, Canada). The results are represented as the relative fold increase in migrated cells when compared to the baseline migration of IPEC-J2 cells in serum-free media after 16 h.

MRSA = assay type: cell-based, Methicillin-resistant Staphylococcus aureus; settings: 2 h, pH 7
Experimental: Veterinary clinical isolates, including Salmonella typhimurium, multi-drug resistant Escherichia coli, methicillin-resistant Staphylococcus aureus (MRSA), and methicillin-resistant Staphylococcus pseudointermedius (MRSP), were kindly provided by Dr. H. Cai (Department of Pathobiology, University of Guelph, ON, Canada). An antibiogram for these strains is available in the supplementary text (Table S1). Gram-negative strains were cultured in Luria−Bertani (LB) broth. Gram-positive strains were cultured in Tryptic soy broth (TSB). Both cultures were grown under aerobic conditions at 37 °C.
The minimum bactericidal concentration (MBC) of SynPG-1 against the tested pathogens was identified through a broth macrodilution antimicrobial assay as previously described, with some modification. […] The buffer volume was adjusted to accommodate the addition of SynPG-1 and PG-1 so that the final solution volume was 0.5 mL for each tested concentration. Final peptide concentrations ranged from 0.1 µg/mL to 8 µg/mL. PG-1 at the known MBC (2 µg/mL E. coli; 4 µg/mL S. typhimurium; 0.5 µg/mL MRSP; 0.5 µg/mL MRSA) was considered the in-house positive control, while the suspension containing no peptide was considered the negative control. Experimental and control tubes were incubated for 2 h at 37 °C without shaking to allow for bactericidal action to occur. […] Colony numbers from each plate were recorded. […]

[1] = system: pre-formed S. typhimurium biofilm; experiment: Pre-formed biofilm destruction assay, crystal violet; assay type: cell-based, Salmonella typhimurium; settings: 48 h pre-formed biofilm, 3 h peptide treatment 37 °C, crystal violet OD 590 nm; p < 0.05 vs control; three independent experiments, n = 6
Experimental: To test the destruction of preformed biofilms, in a 96-well plate, 15 µL of overnight culture, of either E. coli, S. typhimurium, or MRSA, was added to 150 µL of minimal salt media (40 mM […]; 22 mM KH2PO4; […] NH4CL; 740 mM NaCl; 2 mM MgSO4; 0.1 mM CaCl2; 22 mM supplemented with D-Glucose) in each well. Plates were placed in a static incubator at 37 °C for 48 h; the time required for untreated wells to form biofilm. After formation, minimal salt media was removed and wells were treated with 155 µL of minimal salt media containing PG-1 or SynPG-1. […] Plates were placed in a static incubator at 37 °C for 3 h. After 3 h, treated media was removed and wells were rinsed with 155 µL of PBS to remove planktonic cells. After sufficient drying of wells, 150 µL of 0.1% crystal violet stain was added to each well and incubated at room temperature for 30 min, after which dye was removed and wells were rinsed again with 155 µL of PBS. After sufficient drying of wells, 150 µL of 70% ethanol solution was added to each well and incubated at room temperature for 30 min. After 30 min, 100 µL of each well was added to a new 96-well plate and absorbance was measured at an OD of 590 nm.

## CC[C@H](C)[C@H](NC(=O)[C@H](CCCCN)NC(=O)[C@H](CCCNC(=N)N)NC(=O)[C@H](CC(C)C)NC(=O)[C@H](CC(C)C)NC(=O)[C@H](CCCNC(=N)N)NC(=O)[C@H](CCCNC(=N)N)NC(=O)[C@H](CC(C)C)NC(=O)CN)C(=O)N[C@@H](CCCNC(=N)N)C(=O)NCC(=O)N[C@@H](CCCNC(=N)N)C(=O)N[C@@H](Cc1c[nH]c2ccccc12)C(=O)N[C@@H](CCCCN)C(=O)NCC(=O)NCC(=O)NCC(=O)N[C@@H](CCCNC(=N)N)C(=O)NCC(=O)NCC(=O)N[C@@H](CCCNC(=N)N)C(=O)N[C@@H](CC(C)C)C(=O)N[C@H]1CSSC[C@@H](C(=O)N[C@H](C(=O)NCC(=O)N[C@@H](CCCNC(=N)N)C(=O)O)C(C)C)NC(=O)[C@H](C(C)C)NC(=O)[C@@H]2CSSC[C@H](NC(=O)[C@H](Cc3ccc(O)cc3)NC1=O)C(=O)N[C@@H](CCCNC(=N)N)C(=O)N[C@@H](CCCNC(=N)N)C(=O)N[C@@H](CCCNC(=N)N)C(=O)N[C@@H](Cc1ccccc1)C(=O)N2 [SynPG-1, Syn-Protegrin-1] (H-GLRRLLRKIRGRWKGGGRGGRLCYCRRRFCVCVGR-OH; disulfide 23-32, 25-30; N-terminus and C-terminus assumed)
IPEC-J2 cells
  Concentration at which cell migration increased significantly: 5 µg/mL
MRSA
  MBC: 0.5 (0.09) μg/mL
[1]
  Concentration with significant disruption of pre-formed biofilm: 8 µg/mL
